Experimental data published in publication PMC6858373 (Scientific Reports, 2019).
Structures can show the parent of a compound that is named as a salt. Where two headings read alike, the source gives them in different places.

Experiments:
[1] = target: T1, FGF14:Nav1.6 C-tail complex (Homo sapiens, UniProt Q92915+Q9UQD0); experiment: Split-luciferase complementation assay (LCA) in Clone V double stable HEK293 cells; format: cell-based
T1 construct: polymerase chain reaction (PCR) amplification of the FGF14 open reading frame (nt 1–855); C-terminal fragment of Nav1.6 (amino acids 1763–1976) fused with CD4ΔC-tail (amino acids 1–395); expressed in transfected cells
T1 sequence (Q92915 1-252 isoform Q92915-2): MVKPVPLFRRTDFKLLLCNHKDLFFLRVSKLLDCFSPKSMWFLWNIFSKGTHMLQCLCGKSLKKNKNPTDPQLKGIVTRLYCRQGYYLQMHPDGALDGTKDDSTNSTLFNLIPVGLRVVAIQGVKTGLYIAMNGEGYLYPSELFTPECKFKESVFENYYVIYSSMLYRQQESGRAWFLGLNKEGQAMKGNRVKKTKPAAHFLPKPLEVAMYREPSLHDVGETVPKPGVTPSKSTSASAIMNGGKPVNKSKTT
T1 sequence (Q9UQD0 1763-1976 limits assumed): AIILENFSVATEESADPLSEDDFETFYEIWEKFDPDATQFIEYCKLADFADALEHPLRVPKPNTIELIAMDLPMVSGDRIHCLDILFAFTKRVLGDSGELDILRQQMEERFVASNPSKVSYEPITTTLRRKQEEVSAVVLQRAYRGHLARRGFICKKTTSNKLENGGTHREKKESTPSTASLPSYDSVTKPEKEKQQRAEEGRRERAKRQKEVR

[2] = target: full-length P. pyralis luciferase (Photinus pyralis, UniProt P08659, K549A/L550V/N119G/N50D/S548I); format: cell-based
Sequence of full-length P. pyralis luciferase (P08659 whole entry N50D/N119G/S548I/K549A/L550V, looked up): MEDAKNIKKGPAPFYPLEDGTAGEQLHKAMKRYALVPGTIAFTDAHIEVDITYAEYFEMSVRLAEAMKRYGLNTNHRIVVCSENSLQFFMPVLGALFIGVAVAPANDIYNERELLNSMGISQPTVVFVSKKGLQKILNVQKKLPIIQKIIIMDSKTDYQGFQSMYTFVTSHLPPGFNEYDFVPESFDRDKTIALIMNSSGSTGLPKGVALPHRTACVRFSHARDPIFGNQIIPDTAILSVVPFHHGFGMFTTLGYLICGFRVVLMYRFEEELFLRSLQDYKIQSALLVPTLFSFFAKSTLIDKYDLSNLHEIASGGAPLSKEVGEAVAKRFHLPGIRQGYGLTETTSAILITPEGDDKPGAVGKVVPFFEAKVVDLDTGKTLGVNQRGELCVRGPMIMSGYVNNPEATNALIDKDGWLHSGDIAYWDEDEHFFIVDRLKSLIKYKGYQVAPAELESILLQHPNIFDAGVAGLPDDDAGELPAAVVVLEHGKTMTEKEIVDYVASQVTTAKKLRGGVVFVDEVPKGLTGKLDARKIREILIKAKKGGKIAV

[3] = in vitro; conditions: human
[4] = system: Clone V cells; experiment: CellTiter Blue (CTB) cell viability counter-screen; conditions: CC_NCI screening; normalized to on-plate 0.3% DMSO controls
[5] = system: Clone V cells; conditions: human
[6] = CC_NCI screening, biological replicate Set 1, normalized to on-plate 0.3% DMSO controls
[7] = CC_NCI screening, biological replicate Set 1, normalized to on-plate 0.3% DMSO controls (n=16 per plate)
[8] = CC_NCI screening, biological replicate Set 2, normalized to on-plate 0.3% DMSO controls
[9] = CC_NCI screening, biological replicate Set 2, normalized to on-plate 0.3% DMSO controls (n=16 per plate)
[10] = average of Set 1 and Set 2, normalized to 0.3% DMSO controls
[11] = CC_NCI screening, normalized to on-plate 0.3% DMSO controls

Row | SMILES | Split Luciferase Assay Z-score Set 1 [1, 6] | Split Luciferase Assay % Lum Set 1 [1, 7] | Split Luciferase Assay Z-score Set 2 [1, 8] | Split Luciferase Assay %Lum Set 2 [1, 9] | Split Luciferase Assay %Lum Avg [1, 10] | Luciferase Assay % Lum (full-length luciferase counter-screen) [2, 11] | Luciferase Assay Z-score (full-length luciferase counter-screen) [2, 11] | Toxicity Assay Z-score (CTB cell viability) ([5]; 16 h, 30 µM) | viability at 16 h, 30 µM [3] | also measured
1 | C[C@@H](Oc1cc(-c2cnn(C3CCNCC3)c2)cnc1N)c1c(Cl)ccc(F)c1Cl [Crizotinib, reference compound] | -5.24 | 35.11% | -5.34 | 34.33% | 34.72% | 91.93% | -1.03 | – | – | Z-score (LCA primary screening) ([1]; 30 µM, 384-well, average of primary screening (n = 2), vs on-plate 0.3% DMSO): −5.29; dose-response behavior of repurchased compounds ([1]; 10-point dose response 0.25-50 µM, Clone V cells): purely inhibitory effects; IMin (% Luminescence) ([1]; antagonists, Clone V cells, 384-well, normalized to DMSO): 34.72 % Luminescence; action toward the FGF14:Nav1.6 C-tail interaction ([1]; dose-dependency validation using fresh compound samples): acted as antagonists; IC50 ([1]; estimated, 8-point dose response 0.25-30 µM, n = 4 per concentration, library compounds, read-out: IC50): 12.2 µM; IC50 ([1]; repurchased compounds, 10-point dose response 0.25-50 µM, n = 8 per concentration, Clone V cells, 384-well, read-out: in-cell IC50): 15.5 µM; viability at 16 h, 30 µM ([3]; Clone V cells): 102%; Toxicity Assay Z-score (CTB cell viability) [4]: 0.27
2 | CC(=O)O[C@]1(C(C)=O)CC[C@H]2[C@@H]3C=C(C)C4=CC(=O)CC[C@]4(C)[C@H]3CC[C@@]21C [Megestrol acetate] | 4.24 | 152.52% | 2.87 | 135.24% | 143.88% | – | – | 0.79 | 106% | Luciferase Assay % Lum (full-length luciferase counter-screen) [2]: 99.64%; Luciferase Assay Z-score (full-length luciferase counter-screen) [2]: -0.05
3 | Sc1ncnc2nc[nH]c12 [Mercaptopurine] | 1.52 | 118.82% | 1.01 | 112.35% | 115.59% | 102.01% | 0.26 | 0.87 | 106% | –
4 | CN(Cc1cnc2nc(N)nc(N)c2n1)c1ccc(C(=O)N[C@@H](CCC(=O)O)C(=O)O)cc1 [Methotrexate] | 0.73 | 109.04% | 0.24 | – | 106.01% | 94.27% | -0.73 | 0.27 | – | viability at 16 h, 30 µM ([3]; Clone V cells): 102%
5 | CO[C@@]12[C@H](COC(N)=O)C3=C(C(=O)C(C)=C(N)C3=O)N1C[C@@H]1N[C@@H]12 [Mitomycin] | 0.73 | 109.04% | -0.01 | 99.87% | 104.45% | 110.98% | 1.41 | – | – | Toxicity Assay Z-score (CTB cell viability) [5]: 2.45; viability [3]: 118%
6 | Clc1ccc(C(c2ccccc2Cl)C(Cl)Cl)cc1 (stereo not shown) [Mitotane] | -6.12 | 24.24% | -5.17 | 36.41% | 30.33% | 54.78% | -5.79 | -0.85 | 93.9% | –
7 | Oc1cccc(-c2nc(N3CCOCC3)c3oc4ncccc4c3n2)c1 [PI-103] | 0.91 | 111.21% | -0.43 | 94.67% | 102.94% | – | 0.79 | 2.64 | – | viability at 16 h, 30 µM ([3]; Clone V cells): 119%
8 | CC(=O)O[C@H]1C(=O)[C@@]2(C)[C@H]([C@H](OC(=O)c3ccccc3)[C@]3(O)C[C@H](OC(=O)[C@H](O)[C@@H](NC(=O)c4ccccc4)c4ccccc4)C(C)=C1C3(C)C)[C@]1(OC(C)=O)CO[C@@H]1C[C@@H]2O [Paclitaxel] | -1.03 | 87.29% | -0.43 | 94.67% | 90.98% | 114.27% | 1.83 | 1.59 | 111% | –
9 | CNNCc1ccc(C(=O)NC(C)C)cc1 [Procarbazine hydrochloride] | 1.52 | 118.82% | -0.26 | 96.75% | 107.78% | – | – | 1.21 | 109% | Luciferase Assay % Lum (full-length luciferase counter-screen) [2]: 99.34%; Luciferase Assay Z-score (full-length luciferase counter-screen) [2]: -0.08
10 | COc1cc(F)c(F)c(Nc2ccc(I)cc2F)c1NS(=O)(=O)C1(C[C@H](O)CO)CC1 [RDEA119] | -7.09 | 12.28% | -7.37 | 9.36% | 10.82% | 66.81% | -4.25 | 0.34 | 102% | –
11 | CC/C(=C(\c1ccccc1)c1ccc(OCCN(C)C)cc1)c1ccccc1 [Tamoxifen citrate] | – | – | – | – | – | – | – | -7.92 | 43.4% | Split Luciferase Assay % Lum Set 1 [1]: 4.67%; Split Luciferase Assay %Lum Avg [1]: 2.86%; Split Luciferase Assay %Lum Set 2 [1]: 1.04%; Split Luciferase Assay Z-score Set 1 [1]: -7.70; Split Luciferase Assay Z-score Set 2 [1]: -8.05; Luciferase Assay % Lum (full-length luciferase counter-screen) [2]: 59.05%; Luciferase Assay Z-score (full-length luciferase counter-screen) [2]: -5.24
12 | COc1cc([C@@H]2c3cc4c(cc3[C@@H](O[C@@H]3O[C@@H]5CO[C@@H](c6cccs6)O[C@H]5[C@H](O)[C@H]3O)[C@H]3COC(=O)[C@H]23)OCO4)cc(OC)c1O [Teniposide] | 1.61 | 119.91% | 2.11 | 125.88% | 122.89% | 92.82% | -0.92 | 0.66 | – | viability at 16 h, 30 µM ([3]; Clone V cells): 105%
13 | S=P(N1CC1)(N1CC1)N1CC1 [Thiotepa] | 0.38 | – | 2.11 | – | – | 95.81% | -0.54 | 1.01 | – | Split Luciferase Assay % Lum Set 1 [1]: 104.69%; Split Luciferase Assay %Lum Avg [1]: 115.28%; Split Luciferase Assay %Lum Set 2 [1]: 125.88%; viability at 16 h, 30 µM ([3]; Clone V cells): 107%
14 | C1CN1c1nc(N2CC2)nc(N2CC2)n1 [Triethylenemelamine] | – | – | – | – | – | – | – | – | – | Split Luciferase Assay % Lum Set 1 [1]: 118.82%; Split Luciferase Assay %Lum Avg [1]: 117.67%; Split Luciferase Assay %Lum Set 2 [1]: 116.51%; Split Luciferase Assay Z-score Set 1 [1]: 1.52; Split Luciferase Assay Z-score Set 2 [1]: 1.34; Luciferase Assay % Lum (full-length luciferase counter-screen) [2]: 108.47%; Luciferase Assay Z-score (full-length luciferase counter-screen) [2]: 1.08; Toxicity Assay Z-score (CTB cell viability) [5]: 0.82; viability [3]: 106%
15 | NC(=O)c1ccc(N(C(N)=O)c2c(F)cccc2F)nc1-c1ccc(F)cc1F [VX-702] | 1.35 | 116.65% | -2.63 | 67.62% | 92.13% | 93.91% | -0.78 | 0.75 | 105% | –
16 | CCCCC(=O)OCC(=O)[C@]1(O)Cc2c(O)c3c(c(O)c2[C@@H](O[C@H]2C[C@H](NC(=O)C(F)(F)F)[C@H](O)[C@H](C)O2)C1)C(=O)c1c(OC)cccc1C3=O [Valrubicin] | 2.84 | 135.13% | 1.17 | 114.43% | 124.78% | – | – | 0.60 | 104% | Luciferase Assay % Lum (full-length luciferase counter-screen) [2]: 92.36%; Luciferase Assay Z-score (full-length luciferase counter-screen) [2]: -0.98
17 | CC[C@]1(O)C[C@@H]2CN(CCc3c([nH]c4ccccc34)[C@@](C(=O)OC)(c3cc4c(cc3OC)N(C)[C@H]3[C@@](O)(C(=O)OC)[C@H](OC(C)=O)[C@]5(CC)C=CCN6CC[C@]43[C@@H]65)C2)C1 [Vinblastine sulfate] | 9.52 | 217.75% | 5.32 | 165.41% | 191.58% | 109.75% | 1.25 | 1.05 | 108% | –
